Source: PubChem BioAssay AID248 (DTP/NCI, 2004)
Inconclusive results and toxic doses are left out. Cut-off read from the data, not from the text of the source: active = T/C of 150% or more; inactive = T/C below 125%.

Tested on: L1210 leukemia ip in BDF1 mice, survival T/C
Test: NCI In Vivo Anticancer Drug Screen. Data for tumor model L1210 Leukemia (intraperitoneal) in B6D2F1 (BDF1) mice
Details: endpoint: mean survival time, higher = longer survival
Summary of the method: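 Each compound was tested against a transplantable tumor grown in mice. The endpoint was survival, with treated animals benchmarked against vehicle controls as a simple ratio.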

[1] = dose: 100.0 mg/kg/injection, schedule: Q04DX003 (ip), vehicle: saline

Measured: T/C

CN/N=C\c1cc2ccccc2c2ccccc12
inactive: dose: 50.0 mg/kg/injection, schedule: Q01DX001 (ip), vehicle: alcohol 89 % of control | dose: 100.0 mg/kg/injection, schedule: Q01DX001 (ip), vehicle: alcohol 89 % of control | dose: 200.0 mg/kg/injection, schedule: Q01DX001 (ip), vehicle: alcohol 100 % of control | dose: 400.0 mg/kg/injection, schedule: Q01DX001 (ip), vehicle: alcohol 89 % of control

O=P(NN1CCCCC1)(NN1CCCCC1)c1ccccc1
inactive: dose: 100.0 mg/kg/injection, schedule: Q01DX009 (ip), vehicle: carboxymethylcellulose (CMC) 93 % of control | dose: 200.0 mg/kg/injection, schedule: Q01DX009 (ip), vehicle: carboxymethylcellulose (CMC) 93 % of control

O=C(O)CNCc1ccc(F)cc1
inactive: dose: 100.0 mg/kg/injection, schedule: Q01DX009 (ip), vehicle: saline 107 % of control | [1] 109 % of control | dose: 200.0 mg/kg/injection, schedule: Q01DX009 (ip), vehicle: saline 108 % of control | dose: 200.0 mg/kg/injection, schedule: Q04DX003 (ip), vehicle: saline 105 % of control | dose: 400.0 mg/kg/injection, schedule: Q01DX009 (ip), vehicle: saline 107 % of control | dose: 400.0 mg/kg/injection, schedule: Q04DX003 (ip), vehicle: saline 102 % of control

CN1CCN(c2ccc(Cl)cc2)CC1
inactive: dose: 25.0 mg/kg/injection, schedule: Q01DX009 (ip), vehicle: Klucel (hydroxypropylcellulose) (HPC) 97 % of control | dose: 25.0 mg/kg/injection, schedule: Q04DX003 (ip), vehicle: Klucel (hydroxypropylcellulose) (HPC) 97 % of control | dose: 50.0 mg/kg/injection, schedule: Q01DX009 (ip), vehicle: Klucel (hydroxypropylcellulose) (HPC) 106 % of control | dose: 50.0 mg/kg/injection, schedule: Q04DX003 (ip), vehicle: Klucel (hydroxypropylcellulose) (HPC) 105 % of control | dose: 100.0 mg/kg/injection, schedule: Q01DX009 (ip), vehicle: Klucel (hydroxypropylcellulose) (HPC) 100 % of control | dose: 100.0 mg/kg/injection, schedule: Q04DX003 (ip), vehicle: Klucel (hydroxypropylcellulose) (HPC) 106 % of control

N#C/C=C/c1cccc([N+](=O)[O-])c1
inactive: dose: 100.0 mg/kg/injection, schedule: Q01DX009 (ip), vehicle: saline with Tween-80 102 % of control | dose: 200.0 mg/kg/injection, schedule: Q01DX009 (ip), vehicle: saline with Tween-80 93 % of control | dose: 400.0 mg/kg/injection, schedule: Q01DX009 (ip), vehicle: saline with Tween-80 98 % of control

CCC1C(=O)OCc2c1c(Br)cn(C)c2=O (stereo not drawn)
inactive: dose: 12.5 mg/kg/injection, schedule: Q04DX003 (ip), vehicle: saline 98 % of control | dose: 12.5 mg/kg/injection, schedule: Q04DX003 (oral), vehicle: saline with Tween-80 100 % of control | dose: 25.0 mg/kg/injection, schedule: Q01DX001 (ip), vehicle: saline with Tween-80 101 % of control | dose: 25.0 mg/kg/injection, schedule: Q04DX003 (ip), vehicle: saline 97 % of control | dose: 25.0 mg/kg/injection, schedule: Q04DX003 (oral), vehicle: saline with Tween-80 100 % of control | dose: 50.0 mg/kg/injection, schedule: Q01DX001 (ip), vehicle: saline with Tween-80 93 % of control | dose: 50.0 mg/kg/injection, schedule: Q04DX003 (ip), vehicle: saline 108 % of control | dose: 50.0 mg/kg/injection, schedule: Q04DX003 (oral), vehicle: saline with Tween-80 104 % of control | dose: 100.0 mg/kg/injection, schedule: Q01DX001 (ip), vehicle: saline with Tween-80 97 % of control | [1] 93 % of control | dose: 100.0 mg/kg/injection, schedule: Q04DX003 (oral), vehicle: saline with Tween-80 96 % of control | dose: 200.0 mg/kg/injection, schedule: Q01DX001 (ip), vehicle: saline with Tween-80 101 % of control
